Target: A3G (APOBEC3G) (Homo sapiens, UniProt Q9HC16)
Assay type: biochemical
Details: 1 μM peptide (Fig. 3B)

Sequence of A3G (APOBEC3G) (Q9HC16 whole entry): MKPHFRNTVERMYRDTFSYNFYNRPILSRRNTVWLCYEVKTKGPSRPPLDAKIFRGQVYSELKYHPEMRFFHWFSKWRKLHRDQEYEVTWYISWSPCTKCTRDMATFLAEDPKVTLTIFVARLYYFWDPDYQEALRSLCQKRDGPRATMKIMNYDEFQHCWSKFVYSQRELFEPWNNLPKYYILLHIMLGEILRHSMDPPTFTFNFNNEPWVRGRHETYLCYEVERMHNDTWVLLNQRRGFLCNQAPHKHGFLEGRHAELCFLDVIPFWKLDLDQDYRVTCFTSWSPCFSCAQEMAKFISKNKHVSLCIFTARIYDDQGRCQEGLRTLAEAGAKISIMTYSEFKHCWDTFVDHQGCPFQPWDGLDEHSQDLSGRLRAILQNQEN

| Sequence | inhibition of A3G deaminase activity (peptide screen) |
| --- | --- |
| IVWQVDRMRIRTWKS [Vif9-23] | inhibited the A3G deaminase activity |
| DLADQLIHLYYFDCF [Vif101-115] | inhibited the A3G deaminase activity |
| GWFYRHHYESTHPRI [Vif37-51] | inhibited the A3G deaminase activity |
| DCFSESAIRNAILGH [Vif113-127] | inhibited the A3G deaminase activity |

Reference: article PMC3139112 (Journal of molecular biology, 2011)
